Experimental data: article PMC9039177 (Frontiers in Chemistry, 2022)
≈ marks a conversion by molar mass, not a printed value. Where “and” joins values, the source holds several entries; their conditions need not be identical. Identical values can stand only once. Counter-ions that a name gives are not always drawn. Like-named read-outs stand apart in the source and are kept apart here.

Experiments:
in vitro [1] = conditions: human, microsomes, pH 7.4
MERS-CoV PLpro [2] = target: T1, MERS-CoV PLpro (Middle East respiratory syndrome-related coronavirus, UniProt K9N7C7); assay: biochemical; format: binding
SARS-CoV PLpro [3] = target: T2, SARS-CoV PLpro (Severe acute respiratory syndrome coronavirus, UniProt P0C6X7); assay: biochemical; format: binding
SARS-CoV-2 PLpro [4] = target: T3, SARS-CoV-2 PLpro (Severe acute respiratory syndrome coronavirus 2, UniProt P0DTD1); assay: biochemical; format: binding
physchem = conditions: kinetic from dmso stock
MERS-CoV PLpro [5] = target: T1, MERS-CoV PLpro; assay: biochemical
SARS-CoV-2 [6] = format: cell-based
in vitro [7] = conditions: mouse, microsomes, pH 7.4
SARS-CoV PLpro [8] = target: T2, SARS-CoV PLpro; assay: biochemical
SARS-CoV-2 PLpro [9] = target: T3, SARS-CoV-2 PLpro; assay: biochemical
in vitro [10] = conditions: human, Caco-2, pH 7.4
SARS-CoV-2 PLpro [11] = target: T3, SARS-CoV-2 PLpro; conditions: read-out: IC50 against PLpro; cited from earlier work
SARS-CoV-2 [12] = conditions: cited from earlier work
human USP21 = human USP21 (Homo sapiens, UniProt Q9UK80); assay: biochemical
Calu-3 cells = conditions: cited from earlier work

T1 sequence (K9N7C7 1482-1803 limits assumed): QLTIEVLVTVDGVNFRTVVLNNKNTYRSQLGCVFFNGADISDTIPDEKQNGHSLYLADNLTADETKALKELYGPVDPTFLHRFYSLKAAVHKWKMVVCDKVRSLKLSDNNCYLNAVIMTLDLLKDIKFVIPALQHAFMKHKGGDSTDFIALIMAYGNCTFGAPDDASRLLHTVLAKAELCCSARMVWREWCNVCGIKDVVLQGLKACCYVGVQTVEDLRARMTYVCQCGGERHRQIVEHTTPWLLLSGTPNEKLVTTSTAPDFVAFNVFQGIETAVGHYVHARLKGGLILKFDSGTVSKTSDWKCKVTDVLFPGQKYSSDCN
Chain of human USP21 (Q9UK80 whole entry): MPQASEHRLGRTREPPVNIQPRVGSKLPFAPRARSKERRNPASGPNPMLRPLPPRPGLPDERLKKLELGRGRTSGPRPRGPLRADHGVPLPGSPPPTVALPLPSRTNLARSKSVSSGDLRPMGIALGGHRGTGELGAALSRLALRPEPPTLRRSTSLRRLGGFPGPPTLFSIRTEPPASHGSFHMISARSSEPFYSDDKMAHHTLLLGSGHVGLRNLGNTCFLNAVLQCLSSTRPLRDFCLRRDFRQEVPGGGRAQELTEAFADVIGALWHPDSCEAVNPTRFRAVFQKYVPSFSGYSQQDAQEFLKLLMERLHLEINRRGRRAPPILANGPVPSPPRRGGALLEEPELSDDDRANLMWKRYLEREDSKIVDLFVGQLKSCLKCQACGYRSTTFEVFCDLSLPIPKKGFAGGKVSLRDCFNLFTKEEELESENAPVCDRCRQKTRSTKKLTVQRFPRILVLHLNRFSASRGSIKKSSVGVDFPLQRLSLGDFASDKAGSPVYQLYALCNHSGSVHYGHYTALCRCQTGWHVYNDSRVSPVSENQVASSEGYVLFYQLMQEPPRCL

COc1cc(CNC(=O)C2CCN(C(C)c3ccc(OC)c4ccccc34)CC2)ccn1 (stereo not shown) [Compound 9, 1-[1-(4-methoxynaphthalen-1-yl)ethyl]-N-[(2-methoxypyridin-4-yl)methyl]piperidine-4-carboxamide]
half-life (in vitro [1]): 39 min | microsomal CLint (in vitro [1]): 45 µL/min/mg | Mouse plasma protein binding: 90.1 % bound | efflux in Caco-2 (Caco-2 cell monolayers): no evidence of efflux | Kd (MERS-CoV PLpro [2]): > 20000 nM | Kd (MERS-CoV PLpro [2]; read-out: KD Exp1, MERS-CoV): > 20000 nM | Kd (MERS-CoV PLpro [2]; read-out: KD Exp3, MERS-CoV): > 20000 nM | Kd (SARS-CoV PLpro [3]; KD Exp1, SARS-CoV): 805 nM | Kd (SARS-CoV PLpro [3]; KD Exp2, SARS-CoV): 800 nM | Kd (SARS-CoV PLpro [3]; KD Exp3, SARS-CoV): 840 nM | Kd (SARS-CoV PLpro [3]; KD, SARS-CoV): 815 nM and 820 nM | Kd (SARS-CoV-2 PLpro [4]; KD Exp1, SARS-CoV-2 PLpro WT): 1420 nM | Kd (SARS-CoV-2 PLpro [4]; KD Exp2, SARS-CoV-2 PLpro WT): 1820 nM | Kd (SARS-CoV-2 PLpro [4]; KD Exp3, SARS-CoV-2 PLpro WT): 2340 nM | Kd (SARS-CoV-2 PLpro [4]; KD, SARS-CoV-2): 1860 ± 460 nM | solubility kinetic (physchem; pH 2, aqueous buffer): > 140 µg/mL | solubility kinetic (physchem; pH 6.5, aqueous buffer): 70 to 140 µg/mL (≈ 161 to 323 µM) | IC50 (MERS-CoV PLpro [5]): > 98000 nM | reduction of viral titer (SARS-CoV-2 [6]): 1 log | viral titer (SARS-CoV-2 [6]): below the limit of detection | half-life (in vitro [7]): 35 min | microsomal CLint (in vitro [7]): 50 µL/min/mg | IC50 (SARS-CoV PLpro [8]): 700 nM | IC50 (SARS-CoV-2 PLpro [9]; IC50, SARS-CoV-2): 760 nM | Papp A→B (in vitro [10]): 46 ×10⁻⁶ cm/s | Papp B→A (in vitro [10]): 46 ×10⁻⁶ cm/s

COc1cc(C(=O)NCC2CCN([C@H](C)c3cccc4ccccc34)CC2)ccn1 [Compound 10, (R)-2-methoxy-N-((1-(1-(naphthalen-1-yl)ethyl)piperidin-4-yl)methyl)isonicotinamide]
loss of potency relative to parent 5c (SARS-CoV-2 PLpro [9]): 4 fold | IC50 (SARS-CoV-2 PLpro [9]; calculated IC50): 3400 nM

COc1cc(CNCC2CCN([C@H](C)c3cccc4ccccc34)CC2)ccn1.O=CO [Compound 11, (R)-1-(2-methoxypyridin-4-yl)-N-((1-(1-(naphthalen-1-yl)ethyl)piperidin-4-yl)methyl)methanamine formate]
loss of potency relative to parent 5c (SARS-CoV-2 PLpro [9]): 7 fold | IC50 (SARS-CoV-2 PLpro [9]; calculated IC50): 5700 nM

CNC(=O)C1CCN([C@H](C)c2cccc3ccccc23)CC1 [Compound 12, (R)-N-methyl-1-(1-(naphthalen-1-yl)ethyl)piperidine-4-carboxamide]
loss of potency relative to parent 5c (SARS-CoV-2 PLpro [9]): 4 fold | IC50 (SARS-CoV-2 PLpro [9]; calculated IC50): 3100 nM

C[C@H](c1cccc2ccccc12)N1CCC(C(=O)NCc2ccn(C)c(=O)c2)CC1 [Compound 13, (R)-N-[(1-methyl-2-oxo-1,2-dihydropyridin-4-yl)methyl]-1-[1-(naphthalen-1-yl)ethyl]piperidine-4-carboxamide]
IC50 (SARS-CoV-2 PLpro [9]; calculated IC50): 690 nM

Cc1ncc(CNC(=O)C2CCN([C@H](C)c3cccc4ccccc34)CC2)s1 [Compound 14, (R)-N-[(2-methylthiazol-5-yl)methyl]-1-(1-(naphthalen-1-yl)ethyl)piperidine-4-carboxamide]
IC50 (SARS-CoV-2 PLpro [9]; calculated IC50): 710 nM

C[C@H](c1cccc2ccccc12)N1CCC(C(=O)NCc2cccnc2)CC1 [Compound 15, (R)-1-(1-(naphthalen-1-yl)ethyl)-N-(pyridin-3-ylmethyl)piperidine-4-carboxamide]
IC50 (SARS-CoV-2 PLpro [9]; calculated IC50): 820 nM

C[C@H](c1cccc2ccccc12)N1CCC(C(=O)NCc2ccc(S(N)(=O)=O)cc2)CC1 [Compound 16, (R)-1-(1-(naphthalen-1-yl)ethyl)-N-(4-sulfamoylbenzyl)piperidine-4-carboxamide formate]
IC50 (SARS-CoV-2 PLpro [9]; calculated IC50): 590 nM

C[C@H](c1cccc2ccccc12)N1CCC(C(=O)NCC2CCOCC2)CC1 [Compound 17, (R)-1-(1-(naphthalen-1-yl)ethyl)-N-((tetrahydro-2H-pyran-4-yl)methyl)piperidine-4-carboxamide]
IC50 (SARS-CoV-2 PLpro [9]; calculated IC50): 1300 nM

CC(c1cccc2ccccc12)N1CCC(C(=O)NCc2cccc(F)c2)CC1 (stereo not drawn) [rac3k]
IC50 (SARS-CoV-2 PLpro [11]): 600 to 800 nM | decrease of SARS-CoV-2 viral titers (TCID50) (SARS-CoV-2 [12]): 2-3 orders of magnitude | IC50 (human USP21): > 98000 nM | IC50 (SARS-CoV-2 PLpro [9]; PLpro IC50): 1500 nM

COc1cc(CNC(=O)C2CCN(C(C)c3cccc4ccccc34)CC2)ccn1 (stereo not drawn) [rac5c]
IC50 (SARS-CoV-2 PLpro [11]): 600 to 800 nM | decrease of SARS-CoV-2 viral titers (TCID50) (SARS-CoV-2 [12]): 2-3 orders of magnitude | IC50 (human USP21): > 98000 nM | IC50 (SARS-CoV-2 PLpro [9]; PLpro IC50): 790 nM | cytotoxicity, no evidence up to (Calu-3 cells): > 33 µM
